# Experimental data published in patent US5442077A, “Benzo[B]Furancarboxamide derivatives, process for the preparation of same and use thereof for improving hypermotility” (Sanwa Kagaku Kenkyusho Co., Ltd., priority 1993, dated 1995).
# Structures can show the parent of a compound that is named as a salt.
# Experiments:
# [1] = molecular target: T1, 5-HT4 receptor (Rattus norvegicus, UniProt Q62758); assay: Agonisting Action to 5-HT4 Receptor (relaxation of carbachol-treated oesophageal mucous membrane muscle sample); type: cell-based; details: negative logarithm of concentration causing 50% relaxation, rat esophagus
# T1 construct: muscular sample of mucous membrane in esophgus exentrated from a rat; from tissue; host or cells: rat oesophagus, muscularis mucosae
# [2] = test system: digestive tract; assay: Action on Hypermotility of Digestive Tract (acceleration of gastric emptying, phenol red); type: in vivo; details: Rattus norvegicus, oral, rats fasted for 24 hours, phenol red 30 min after administration
# Method: The compounds obtained by Examples 1, 2 and 5 as well as exemplar known compounds (Metocloplamide and Cysapride) were selected as Test Compounds, and an action of the compounds for accelerating gastric emptying was checked in accordance with the method described by Yokochi et al [" (which can be translated as --Bulletin of Pharmacological Society of Japan--)", Vol. 92, page 297 (1988 )].
# Namely, the test compound was orally administered in an amount of 0.3, 1.0, 3.0 or 10 mg/kg to rats fasted for 24 hours, and after 30 minutes from the administration, a coloring matter in a constant amount (phenol red, 100 μg) was also orally administered.
# Rate of gastric emptying=100-(B/A)×100
# A: Dosing amount of coloring matter, and
# B: Remaining amount of coloring matter.
# Rate of acceleration=(C-D)×100
# C: Rate of gastric emptying in Test Group, and
# D: Rate of gastric emptying in Control Group given no Test Compound.
# [3] = test system: dopamine D2 receptor; assay: Anti-Dopamine Action (general symptoms including catalepsy and blepharoptosis); type: in vivo, rat
# Method: The compound was orally administered to rats in amount of 100, 300 or 1000 mg/kg to observe for 2 days general symptoms including catalepsy and blepharoptosis due to antagonistic action of the compound to dopamine D2 receptor.
# [4] = oral, rats, observed for 2 days
# T1 sequence (Q62758 whole entry): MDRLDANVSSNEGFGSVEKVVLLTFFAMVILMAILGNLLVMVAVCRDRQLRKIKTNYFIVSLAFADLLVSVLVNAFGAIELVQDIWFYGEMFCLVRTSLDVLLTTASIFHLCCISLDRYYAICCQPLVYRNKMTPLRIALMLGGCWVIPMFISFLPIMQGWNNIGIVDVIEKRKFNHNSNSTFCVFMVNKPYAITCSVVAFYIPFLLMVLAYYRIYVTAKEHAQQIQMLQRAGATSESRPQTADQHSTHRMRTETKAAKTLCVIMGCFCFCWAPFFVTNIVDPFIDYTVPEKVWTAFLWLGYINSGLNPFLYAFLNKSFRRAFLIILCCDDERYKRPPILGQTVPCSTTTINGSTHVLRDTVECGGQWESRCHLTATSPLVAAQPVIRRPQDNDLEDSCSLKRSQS
SMILES,EC50 [1] [nM],ED50 [2] [mg/kg],"Influence on central nervous system, 1000 mg/kg [3, 4]",also measured
"CC1Cc2c(N)c(Cl)cc(C(=O)NCCC34CCCN3CCC4)c2O1 (single isomer, unassigned; (+)) [Example 4, (+)-4-Amino-N-[2-(1-azabicyclo[3.3.0]octan-5-yl)ethyl]-5-chloro-2-methyl-2,3-dihydrobenzo[b]furan-7-carboxamide . 1/2 fumarate]",50.1,,,
"COc1cc(N)c(Cl)cc1C(=O)NC1CCN(CCCOc2ccc(F)cc2)CC1OC (centres unmarked) [Cisapride, reference compound]",39.8,6.37,++,
"Nc1c(Cl)cc(C(=O)NCCC23CCCN2CCC3)c2c1CCO2 [Example 1, 4-Amino-N-[2-(1-azabicyclo[3.3.0]octan-5-yl)ethyl]-5-chloro-2,3-dihydrobenzo[b]furan-7-carboxamide]",316,2.15,-,
"CC1Cc2c(N)c(Cl)cc(C(=O)NCCC34CCCN3CCC4)c2O1 (centres unmarked) [Example 2, 4-Amino-N-[2-(1-azabicyclo[3.3.0]octan-5-yl)ethyl]-5-chloro-2-methyl-2,3-dihydrobenzo[b]furan-7-carboxamide]",,1.97,-,"Influence on central nervous system, 100 mg/kg [3, 4]: -; Influence on central nervous system, 300 mg/kg ([3]; oral, rats, 300 mg/kg, observed for 2 days): -"
"CC1(C)Cc2c(N)c(Cl)cc(C(=O)NCCC34CCCN3CCC4)c2O1 [Example 5, 4-Amino-N-[2-(1-azabicyclo[3.3.0]octan-5-yl)ethyl]-5-chloro-2,2-dimethyl-2,3-dihydrobenzo[b]furan-7-carboxamide]",316,1.5,-,
"CCN(CC)CCNC(=O)c1cc(Cl)c(N)cc1OC [Metoclopramide, 4-amino-5-chloro-N-[(2-diethylamino)ethyl]-2-methoxybenzamide, reference compound]",,16.3,,"Influence on central nervous system, 100 mg/kg ([3]; rat, in vivo, po): ++"

# The remaining compounds from weak to strong by EC50 [1], led by results:
EC50 [1] [nM],SMILES,ED50 [2] [mg/kg],"Influence on central nervous system, 1000 mg/kg [3, 4]",also measured
1000,"CC1Cc2c(N)ccc(C(=O)NCCC34CCCN3CCC4)c2O1 (centres unmarked) [Example 10, 4-Amino-N-[2-(1-azabicyclo[3.3.0]octan-5-yl)ethyl]-2-methyl-2,3-dihydrobenzo[b]furan-7-carboxamide]",,,
316,"CC(=O)Nc1c(Cl)cc(C(=O)NCCC23CCCN2CCC3)c2c1CC(C)O2 (centres unmarked) [Example 8, 4-Acetylamino-N-[2-(1-azabicyclo[3.3.0]octan-5-yl)ethyl]-5-chloro-2-methyl-2,3-dihydrobenzo[b]furan-7-carboxamide]",,,
100,"CC1Cc2cc(Cl)cc(C(=O)NCCC34CCCN3CCC4)c2O1 (centres unmarked) [Example 9, N-[2-(1-Azabicyclo[3.3.0]octan-5-yl)ethyl]-5-chloro-2-methyl-2,3-dihydrobenzo[b]furan-7-carboxamide]",,,
39.8,"CC1Cc2c(N)c(Cl)cc(C(=O)NCCC34CCCN3CCC4)c2O1 (centres unmarked) [2 (*), 4-Amino-N-[2-(1-azabicyclo[3.3.0]octan-5-yl)ethyl]-5-chloro-2-methyl-2,3-dihydrobenzo[b]furan-7-carboxamide]",,,
20,"CC1Cc2c(N)c(Cl)cc(C(=O)NCCC34CCCN3CCC4)c2O1 (single isomer, unassigned; (-)) [Example 3, (-)-4-Amino-N-[2-(1-azabicyclo[3.3.0]octan-5-yl)ethyl]-5-chloro-2-methyl-2,3-dihydrobenzo[b]furan-7-carboxamide . 1/2 fumarate]",,,
20,"CCC1Cc2c(N)c(Cl)cc(C(=O)NCCC34CCCN3CCC4)c2O1 (centres unmarked) [Example 7, 4-Amino-N-[2-(1-azabicyclo[3.3.0]octan-5-yl)ethyl]-5-chloro-2-ethyl-2,3-dihydrobenzo[b]furan-7-carboxamide]",,,
12.6,"CC1Oc2c(C(=O)NCCC34CCCN3CCC4)cc(Cl)c(N)c2C1C (centres unmarked) [Example 6, 4-Amino-N-[2-(1-azabicyclo[3.3.0]octan-5-yl)ethyl]-5-chloro-2,3-dimethyl-2,3-dihydrobenzo[b]furan-7-carboxamide]",,,
